The values below come from US20110039819A1, “SUBSTITUTED PHENOXYBENZAMIDES” (priority 2008, published 2011).

Like-named read-outs stand apart in the source and are kept apart here. A value given as a limit tells only on which side of the number the result lay.

One may read the IC50 as the concentration needed to halve the response being measured.

One assay has as its target T1, MEK1 (Homo sapiens, UniProt Q02750).
T1 construct: purchased Millipore 14-420 (GST-MEK1); 14-703 (Cot1); host or cells: Cot1: insect cells (SF21)
Description: MEK1 activation kinase assay (Assay 2, HTRF; Cot1 phosphorylates GST-MEK1). Type of assay: biochemical. How it is done:
MEK1 Activation Kinase Assay
The kinase Cot1 activates MEK1 by phosphorylating its activation loop. The inhibitory activity of compounds of the present invention on this activation of MEK1 was quantified employing the HTRF assay described in the following paragraphs.
As substrate for the kinase reaction the unactive C-terminally His6-tagged GST-MEK1 fusion protein (Millipore cat. no 14-420) was used.
Then the kinase reaction was started by the addition of 2 μl of a solution of Cot1 in assay buffer and the resulting mixture was incubated for a reaction time of 20 min at 22° C. The concentration of Cot1 in the assay was adjusted depending of the activity of the enzyme lot and was chosen appropriate to have the assay in the linear range, typical enzyme concentrations were in the range of about 2 ng/μl (final conc. in the 5 μl assay volume).
The resulting mixture was incubated 2 h at 22° C. to allow the binding of the phosphorylated GST-MEK1 to the anti-GST-XL665 and the Eu-cryptate labelled anti-phospho-MEK 1/2 antibody. Subsequently the amount of Ser217/Ser221-phosphorylated substrate was evaluated by measurement of the resonance energy transfer from the Eu-Cryptate-labelled anti-phospho-MEK antibody to the anti-GST-XL665.

The test system of another assay is colon cancer. The following applies: oral treatment, mouse models, reference [18]; cited from earlier work.
The next assay concerns MEK1/2. The following applies: second-generation MEK1/2 inhibitor, reference [17]; cited from earlier work.
Setting [1] is: mean values from 2 or more measurements, read-out: Assay 2 IC50 values (nanomolar) (MEK1 activation kinase assay) (values are mean values from 2 or more measurements).
Setting [2] is: representative example compounds, read-out: IC50 in MEK1 activation kinase assay.

T1 sequence (Q02750 whole entry): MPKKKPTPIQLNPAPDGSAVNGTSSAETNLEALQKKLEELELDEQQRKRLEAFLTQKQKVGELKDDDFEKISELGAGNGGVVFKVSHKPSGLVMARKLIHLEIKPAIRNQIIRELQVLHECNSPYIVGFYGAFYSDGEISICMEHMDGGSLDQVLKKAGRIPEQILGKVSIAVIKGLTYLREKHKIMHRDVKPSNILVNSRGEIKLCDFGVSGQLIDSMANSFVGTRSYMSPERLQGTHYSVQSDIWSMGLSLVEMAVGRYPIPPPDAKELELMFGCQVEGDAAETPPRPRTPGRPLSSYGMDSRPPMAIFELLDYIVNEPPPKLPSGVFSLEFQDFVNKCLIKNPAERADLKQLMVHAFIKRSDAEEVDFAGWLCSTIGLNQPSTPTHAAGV

In the case of `NC(=O)c1c(Nc2ccc(I)cc2F)cc(F)cc1Oc1cccc(C(=O)O)c1` [Example 10.7, 3-[2-Carbamoyl-5-fluoro-3-(2-fluoro-4-iodo-phenylamino)-phenoxy]-benzoic acid], the IC50 was 33.2 nM at MEK1 (setting [1]) and under 1000 nM on MEK1 (setting [2]).
For `CS(=O)(=O)c1cccc(Oc2cc(F)cc(Nc3ccc(I)cc3F)c2C(N)=O)c1` [Example 10.8, 4-Fluoro-2-(2-fluoro-4-iodo-phenylamino)-6-(3-methanesulfonyl-phenoxy)-benzamide], the 50% inhibitory concentration (IC50) on MEK1 (setting [1]) is 29.4 nM; on MEK1 (setting [2]) it was under 1000 nM.
Regarding `O=C(NOCC1CC1)c1ccc(F)c(F)c1Nc1ccc(I)cc1Cl` [PD184352], the “inhibition of colon cancer growth” value in the assay with colon cancer is reported as “inhibit colon cancer growth in vivo”. Moreover, in the assay on MEK1/2, the IC50 result is given as “low nanomolar range”.
